Laboratory results taken from patent publication US20110098288A1, “SULFONAMIDES AS ZAP-70 INHIBITORS” (priority 2008, published 2011).
Counter-ions that a name gives are not always drawn.

molecular target: T1, ZAP-70 (Homo sapiens, UniProt P43403); test: ZAP-70 kinobeads assay; type: binding; settings: competition with immobilized aminopyrido-pyrimidine ligand 24 in cell lysate; ZAP-70 detected by dot blot
T1 construct: endogenous in cells; host or cells: cell lysate
T1 sequence (P43403 1-619): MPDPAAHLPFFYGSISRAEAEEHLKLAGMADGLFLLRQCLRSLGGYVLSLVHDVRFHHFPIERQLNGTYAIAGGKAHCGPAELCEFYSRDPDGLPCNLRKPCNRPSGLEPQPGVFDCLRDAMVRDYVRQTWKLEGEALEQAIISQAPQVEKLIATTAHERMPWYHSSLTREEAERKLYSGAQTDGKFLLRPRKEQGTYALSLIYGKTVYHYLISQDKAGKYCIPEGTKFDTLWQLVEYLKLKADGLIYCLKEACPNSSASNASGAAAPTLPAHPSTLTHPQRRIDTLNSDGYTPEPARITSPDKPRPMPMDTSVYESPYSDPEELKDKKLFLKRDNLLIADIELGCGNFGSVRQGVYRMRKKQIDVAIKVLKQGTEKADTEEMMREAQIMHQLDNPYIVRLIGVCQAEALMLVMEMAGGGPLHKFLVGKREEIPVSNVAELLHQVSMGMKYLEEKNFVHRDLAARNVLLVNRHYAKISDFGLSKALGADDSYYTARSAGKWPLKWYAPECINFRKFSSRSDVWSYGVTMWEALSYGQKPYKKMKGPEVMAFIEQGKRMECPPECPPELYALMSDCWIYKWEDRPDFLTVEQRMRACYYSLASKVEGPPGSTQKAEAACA
Experimental: The compounds of the present invention as described in the previous examples can be tested in the ZAP-70 kinobeads assay as described (EP-A 1862802 and WO-A 2007/137867). Briefly, test compounds (at various concentrations) and the affinity matrix with the immobilized aminopyrido-pyrimidine ligand 24 are added to cell lysate aliquots and allowed to bind to the proteins in the lysate sample. After the incubation time the beads with captured proteins are separated from the lysate. Bound proteins are then eluted and the presence ZAP-70 is detected and quantified using a specific antibody in a dot blot procedure and the Odyssey infrared detection system. Conventionally, ZAP-70 kinase activity can be measured using purified or recombinant enzyme in a solution-based assay with protein or peptide substrates (Isakov et al., 1996, J. Biol. Chem. 271(26), 15753-15761; Moffat et al., 1999, Bioorg. Med. Chem. Letters 9, 3351-3356).

| IC50 | SMILES |
| --- | --- |
| < 0.1 µM | CS(=O)(=O)Nc1ccccc1Nc1nc(Nc2cccc(OCCC3CCCN3)c2)ncc1Cl (stereo not shown) [Example 131, N-(2-(5-chloro-2-(3-(2-(pyrrolidin-2-yl)ethoxy)phenylamino)pyrimidin-4-ylamino)phenyl)methanesulfonamide] |
| 0.1 to 1 µM | COc1ccc(Nc2nc(Nc3cc(OC)c(OC)c(OC)c3)ncc2Cl)c(NS(C)(=O)=O)c1F [Example 187, N-(6-(5-chloro-2-(3,4,5-trimethoxyphenylamino)pyrimidin-4-ylamino)-2-fluoro-3-methoxyphenyl)methanesulfonamide] |
| 0.1 to 1 µM | CS(=O)(=O)Nc1ccccc1Nc1nc(Nc2ccc(-n3cncn3)cc2)ncc1Cl [Example 212, N-(2-(2-(4-(1H-1,2,4-triazol-1-yl)phenylamino)-5-chloropyrimidin-4-ylamino)phenyl)methanesulfonamide] |
| 1 to 10 µM | COc1cc(Nc2ncc(F)c(Nc3cc(C)cc(C)c3NS(C)(=O)=O)n2)cc(OC)c1OC [Example 186, N-(2-(5-fluoro-2-(3,4,5-trimethoxyphenylamino)pyrimidin-4-ylamino)-4,6-dimethylphenyl)methanesulfonamide] |
| 1 to 10 µM | CS(=O)(=O)Nc1ccccc1Nc1nc(Nc2ccc(OC(F)F)cc2)ncc1F [Example 27, N-(2-(2-(4-(difluoromethoxy)phenylamino)-5-fluoropyrimidin-4-ylamino)phenyl)methanesulfonamide] |
| 0.1 to 1 µM | CS(=O)(=O)Nc1ccccc1Nc1nc(Nc2cccc(-n3cnnn3)c2)ncc1Br [Example 216, N-(2-(2-(3-(1H-tetrazol-1-yl)phenylamino)-5-bromopyrimidin-4-ylamino)phenyl)methanesulfonamide] |
| 1 to 10 µM | COc1ccc(Nc2ncc(F)c(Nc3ccccc3N(C)S(C)(=O)=O)n2)cc1 [Example 108, N-(2-(5-fluoro-2-(4-methoxyphenylamino)pyrimidin-4-ylamino)phenyl)-N-methylmethanesulfonamide] |
| 0.1 to 1 µM | CS(=O)(=O)Nc1ccccc1Nc1nc(Nc2cccc(-n3cccn3)c2)ncc1Cl [Example 206, N-(2-(2-(3-(1H-pyrazol-1-yl)phenylamino)-5-chloropyrimidin-4-ylamino)phenyl)methanesulfonamide] |
| 0.1 to 1 µM | COc1ccc(Nc2nc(Nc3cc(OC)c(OC)c(OC)c3)ncc2F)c(NS(C)(=O)=O)c1C [Example 163, N-(6-(5-fluoro-2-(3,4,5-trimethoxyphenylamino)pyrimidin-4-ylamino)-3-methoxy-2-methylphenyl)methanesulfonamide] |
| 0.1 to 1 µM | CS(=O)(=O)Nc1ccccc1Nc1nc(Nc2cccc(-n3cnnn3)c2)ncc1Cl [Example 203, N-(2-(2-(3-(1H-tetrazol-1-yl)phenylamino)-5-chloropyrimidin-4-ylamino)phenyl)methanesulfonamide] |
| 0.1 to 1 µM | COc1cc(Nc2ncc(F)c(Nc3ccccc3NS(C)(=O)=O)n2)ccc1C [Example 73, N-(2-(5-fluoro-2-(3-methoxy-4-methylphenylamino)pyrimidin-4-ylamino)phenyl)methanesulfonamide] |
| < 0.1 µM | COc1cc(Nc2ncc(F)c(Nc3ccccc3NS(C)(=O)=O)n2)cc(OC)c1OCCN1CCCC1 [Example 75, N-(2-(2-(3,5-dimethoxy-4-(2-(pyrrolidin-1-yl)ethoxy)phenylamino)-5-fluoropyrimidin-4-ylamino)phenyl)methanesulfonamide] |
| < 0.1 µM | CS(=O)(=O)Nc1ccccc1Nc1nc(Nc2ccc(CC(=O)O)cc2)ncc1Cl [Example 148, 2-(4-(5-chloro-4-(2-(methylsulfonamido)phenylamino)pyrimidin-2-ylamino)phenyl)acetic acid] |
| 1 to 10 µM | COc1cc(Nc2ncc(F)c(Nc3ccccc3NS(C)(=O)=O)n2)ccc1Cl [Example 10, N-(2-(2-(4-chloro-3-methoxyphenylamino)-5-fluoropyrimidin-4-ylamino)phenyl)methanesulfonamide] |
| 0.1 to 1 µM | CS(=O)(=O)Nc1ccccc1Nc1nc(Nc2cccc(-n3cncn3)c2)ncc1Cl [Example 211, N-(2-(2-(3-(1H-1,2,4-triazol-1-yl)phenylamino)-5-chloropyrimidin-4-ylamino)phenyl)methanesulfonamide] |
| 1 to 10 µM | CNC(=O)c1cccc(Nc2ncc(F)c(Nc3ccccc3NS(C)(=O)=O)n2)c1 [Example 80, 3-(5-fluoro-4-(2-(methylsulfonamido)phenylamino)pyrimidin-2-ylamino)-N-methylbenzamide] |

| IC50 | SMILES |
| --- | --- |
| 1 to 10 µM | CS(=O)(=O)Nc1ccccc1Nc1nc(Nc2cccc(C#N)c2)ncc1F [Example 200, N-(2-(2-(3-cyanophenylamino)-5-fluoropyrimidin-4-ylamino)phenyl)methanesulfonamide] |
| 1 to 10 µM | Cn1ccc(-c2cccc(Nc3ncc(F)c(Nc4ccccc4NS(C)(=O)=O)n3)c2)n1 [Example 201, N-(2-(5-fluoro-2-(3-(1-methyl-1H-pyrazol-3-yl)phenylamino)pyrimidin-4-ylamino)phenyl)methanesulfonamide] |
| < 0.1 µM | COc1ccc(Nc2nc(Nc3ccc(OC)c(OC)c3)ncc2Br)c(NS(C)(=O)=O)c1 [Example 179, N-(2-(5-bromo-2-(3,4-dimethoxyphenylamino)pyrimidin-4-ylamino)-5-methoxyphenyl)methanesulfonamide] |
| 1 to 10 µM | Cc1nc(-c2cccc(Nc3ncc(F)c(Nc4ccccc4NS(C)(=O)=O)n3)c2)no1 [Example 189, N-(2-(5-fluoro-2-(3-(5-methyl-1,2,4-oxadiazol-3-yl)phenylamino)pyrimidin-4-ylamino)phenyl)methanesulfonamide] |
| 1 to 10 µM | COc1cc(Nc2ncc(F)c(Nc3cccc(NS(=O)(=O)CCN(C)C)c3)n2)cc(OC)c1OC [Example 65, 2-(Dimethylamino)-N-(3-(5-fluoro-2-(3,4,5-trimethoxyphenylamino)pyrimidin-4-ylamino)phenyl)ethanesulfonamide] |
| 0.1 to 1 µM | COc1cc(Nc2ncc(F)c(Nc3ccc(OCCCN4CCCCC4)cc3NS(C)(=O)=O)n2)cc(OC)c1OC [Example 185, N-(2-(5-fluoro-2-(3,4,5-trimethoxyphenylamino)pyrimidin-4-ylamino)-5-(3-(piperidin-1-yl)propoxy)phenyl)methanesulfonamide] |
| 1 to 10 µM | CS(=O)(=O)Nc1ccccc1Nc1nc(Nc2ccc(C#N)cc2)ncc1Cl [Example 204, N-(2-(5-chloro-2-(4-cyanophenylamino)pyrimidin-4-ylamino)phenyl)methanesulfonamide] |
| 1 to 10 µM | CS(=O)(=O)Nc1ccccc1Nc1nc(Nc2cccc(Cl)c2)ncc1F [Example 12, N-(2-(2-(3-chlorophenylamino)-5-fluoropyrimidin-4-ylamino)phenyl)methanesulfonamide] |
| 1 to 10 µM | COc1ccc(Nc2ncc(F)c(Nc3ccccc3NS(C)(=O)=O)n2)cc1Cl [Example 19, N-(2-(2-(3-chloro-4-methoxyphenylamino)-5-fluoropyrimidin-4-ylamino)phenyl)methanesulfonamide] |
| 1 to 10 µM | COc1cc(Nc2ncc(F)c(Nc3ccccc3NS(=O)(=O)CCN(C)C)n2)cc(OC)c1OC [Example 61, 2-(Dimethylamino)-N-(2-(5-fluoro-2-(3,4,5-trimethoxyphenylamino)pyrimidin-4-ylamino)phenyl)ethanesulfonamide] |
| 0.1 to 1 µM | COc1cc(Nc2ncc(F)c(Nc3cccc(C)c3NS(C)(=O)=O)n2)cc(OCC2CC2)c1OC [Example 120, N-(2-(2-(3-(cyclopropylmethoxy)-4,5-dimethoxyphenylamino)-5-fluoropyrimidin-4-ylamino)-6-methylphenyl)methanesulfonamide] |
| 1 to 10 µM | CCOC(=O)COc1ccc(Nc2ncc(F)c(Nc3ccccc3NS(C)(=O)=O)n2)cc1 [Example 144, Ethyl 2-(4-(5-fluoro-4-(2-(methylsulfonamido)phenylamino)pyrimidin-2-ylamino)phenoxy)acetate hydrochloride] |
| 0.1 to 1 µM | CS(=O)(=O)Nc1ccccc1Nc1nc(Nc2ccc3nn[nH]c3c2)ncc1F [Example 33, N-(2-(2-(1H-benzo[d][1,2,3]-triazol-6-ylamino)-5-fluoropyrimidin-4-ylamino)phenyl)methanesulfonamide] |
| 0.1 to 1 µM | CS(=O)(=O)Nc1ccccc1Nc1nc(Nc2ccccc2)ncc1Br [Example 102, N-(2-(5-bromo-2-(phenylamino)pyrimidin-4-ylamino)phenyl)methanesulfonamide hydrochloride] |
| 1 to 10 µM | Cc1cc(C)n(-c2cccc(Nc3ncc(Cl)c(Nc4ccccc4NS(C)(=O)=O)n3)c2)n1 [Example 209, N-(2-(5-chloro-2-(3-(3,5-dimethyl-M-pyrazol-1-yl)phenylamino)pyrimidin-4-ylamino)phenyl)methanesulfonamide] |
